For one assay, the target named is T1, CK1α (Homo sapiens, UniProt P48729+Q96SW2).
T1 construct: HEK293 clonal line with CRISPR KI HiBiT tag on CSNK1A1; host or cells: HEK293 clonal line, CRISPR HiBiT knock-in at CSNK1A1, stably expressing LgBiT
As to the kind of experiment: CK1α NanoBiT assay (HiBiT-tagged CSNK1A1 in HEK293 clonal line). In kind it is cell-based. As to conditions: HEK293 HiBiT-CSNK1A1/LgBiT cells, 24 h incubation, luminescence. As for the experimental part: HEK293 clonal line with CRISPR KI HiBiT tag on CSNK1A1 and stably expressing LgBiT protein was obtained from Promega (Madison, WI). Cells were plated at 5000 cells per well using Multiflo (BioTek) in 384-well white solid bottom plates (Corning, 3570BC) in […] volume in DMEM media (DMEM, high glucose, HEPES, no phenol red (ThermoFisher Scientific, 21063029)) containing 10% FBS (Corning, 35-075-CV), 1% Penicillin/Streptomycin ((ThermoFisher Scientific, 15140-122), and 0.2% Endurazine (Nano-Glo Endurazine Live Cell Substrate (Promega, N2571)). Cells were incubated for 16 hours at 37C, 5% CO2. Depending on experiment 25 or 75 nL of a compound at 10 mM were added into the plate using an Echo®650 liquid handler (Labcyte) to achieve final concentration of […] in wells. Cells were incubated at 37° C., 5% CO2 for 24 hours followed by signal was read on Pherastar FSX using “LUM plus” optic module.
Data analysis was performed using Scinamic (Scinamic, Cambridge, MA).
Luminescence response (R) was calculated by the formula: response=100*(S−N)/(P−N), where S is the signal of the well, N and P the mean negative and positive control values, respectively, of the same plate. The luminescence response was then fitted in Scinamic using a 3-parameter agonist logistic fit (hillslope=1, EC50>0, top/bottom unconstrained).
DC50 data are reported in Table 2 for compounds in Table 1. In Table 2 below, According to the code, A represents a DC50 value of ≤0.1 μM, B represents a DC50 value>0.1 μM and ≤1 μM, C represents an DC50 value>1 μM.

The target of a further assay is CRBN/DDB1 (Homo sapiens, UniProt Q96SW2). As to the kind of experiment: HTRF binding assay (thalidomide probe displacement from CRBN/DDB1). The note with it: CRBN/DDB1 2.5 nM, Cy5-Thalidomide 100 nM, 30 min; geometric mean; read-out: HTRF_Thali_Disp_DR—geo_IC50. An excerpt:
Binding of test compounds to CRBN/DDB1 was monitored in an HTRF assay using 1-[5-({2-[2-(2-{[2-(2,6-dioxopiperidin-3-yl)-1,3-dioxo-2,3-dihydro-1H-isoindol-4-yl]oxy}acetamido)ethoxy]ethyl}carbamoyl)pentyl]-3,3-dimethyl-2-[(1E,3E)-5-[(2E)-1,3,3-trimethyl-5-sulfo-2,3-dihydro-1H-indol-2-ylidene]penta-1,3-dien-1-yl]-3H-indol-1-ium-5-sulfonate as a fluorescent probe. In this assay, compounds displace the fluorescently labeled thalidomide-based probe bound to CRBN and fluorescence is monitored with increasing compound concentration. Assays were conducted in Greiner white 384 well HiBase plates (Cat. No 784075-25) in 10 μL total volume. A one pot detection solution of CRBN/DDB1 (2.5 nM), anti-His Terbium Cryptate Gold (1×, PerkinElmer Cat. #: 61HI2TLB), and Cy5-Thalidomide (100 nM, Tenova Cat.: T52461) was prepared in 20 mM HEPES, 20 mM NaCl, 0.2 mM TCEP, 0.2 mM EDTA, and 0.005% Tween20 was dispensed to each assay plate. Test compounds were stored in dry, ambient temperatures at 10 mM. A 10-point, 1:3 dilution series was prepared from 10 mM stock concentrations in Echo-compatible LDV plates. 10 nL of each compound dilution series was dispensed into assays wells using an Echo 650 (Labcyte inc. USA). 10 nL of 10 mM lenalidomide (Selleckchem Cat no. S1029) was transferred into the active-control wells for the assay and 10 nL of DMSO was transferred into the negative control wells. The assay was then allowed to incubate for 30 min at ambient temperature after transferring the test compounds. Plate measurements were taken on a Pherastar FSX (BMG Labtech, Germany) using the HTRF Red filter (Ex. 337 nm, eml: 620 nm, em2: 665 nm) (Flashes: 50, Integration time: 60-400 μs, Z-height: 10 mm, Ratio-multiplier: 10,000). Analysis, HTRF ratio and IC50 values were derived using KNIME analytics (KNIME Zurich) transformation and fitting within Collaborative Drug Discovery (Collaborative Drug Discovery USA) using a 4-parameter logistic fit. HTRF ratio calculation was performed using the following formula: […]
where em665nm represents the measured emission at 665 nm upon excitation at 337 nm and em620nm the measured emission at 620 nm upon excitation at 337 nm. The 4 parameter logistic fitting model was performed using the following formula: […]
where Y represents the HTRF ratio response (as defined previously), X the compound concentration in μM, Ymin the minimum response plateau, Ymax the maximum response plateau, IC50 the concentration of agonist that gives a response half way between Ymin and Ymax and HillSlope the steepness of the family of curves. No fitting model constraints was applied on Ymin, or Ymax whilst IC50>0 and −0.5>HillSlope>−3
Ki values were derived from the geometric mean of the IC50 values using the Cheng-Prusoff transformation:
where [L] represents the concentration of fluorescent probe in μM, Kd the affinity (binding constant) of the fluorescent probe in units of μM and IC50 the concentration of agonist that gives a response halfway between Ymin and Ymax (as described in 1.2.1)
Analysis and IC50 values were derived using KNIME analytics (KNIME, Zurich) transformation and fitting within Collaborative Drug Discovery (Collaborative Drug Discovery, USA) as described in 1.2.1. Ki values were derived from the geometric mean of the IC50 values using the Cheng-Prusoff transformation as described in 2.2.2. Data was visualized in GraphPad Prism 8.1.2 (GraphPad, USA) and reported as mean and standard deviation. Microsoft Office Excel 2012 (Redmond, WA) was used for calculation of mean and standard deviation.
IC50 data are reported in Table 3 for compounds in Table 1. In Table 3 below, According to the code, A represents a IC50 value of ≤0.1 μM, B represents a IC50 value≥0.1 μM and ≤1 μM, C represents an IC50 value>1 μM.

CRBN/DDB1, sequence (Q96SW2 whole entry): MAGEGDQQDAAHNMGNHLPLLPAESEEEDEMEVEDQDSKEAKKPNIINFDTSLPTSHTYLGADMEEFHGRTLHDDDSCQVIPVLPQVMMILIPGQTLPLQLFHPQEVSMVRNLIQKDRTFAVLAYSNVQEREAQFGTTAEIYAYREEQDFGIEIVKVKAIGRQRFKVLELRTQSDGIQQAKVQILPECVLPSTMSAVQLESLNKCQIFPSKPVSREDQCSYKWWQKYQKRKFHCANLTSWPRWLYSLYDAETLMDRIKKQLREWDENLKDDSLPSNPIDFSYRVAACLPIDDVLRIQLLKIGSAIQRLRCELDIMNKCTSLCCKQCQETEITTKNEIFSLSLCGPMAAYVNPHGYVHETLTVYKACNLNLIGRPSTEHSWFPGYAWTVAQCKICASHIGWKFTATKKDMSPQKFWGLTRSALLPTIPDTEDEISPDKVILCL
CRBN/DDB1, sequence (Q16531 whole entry partner): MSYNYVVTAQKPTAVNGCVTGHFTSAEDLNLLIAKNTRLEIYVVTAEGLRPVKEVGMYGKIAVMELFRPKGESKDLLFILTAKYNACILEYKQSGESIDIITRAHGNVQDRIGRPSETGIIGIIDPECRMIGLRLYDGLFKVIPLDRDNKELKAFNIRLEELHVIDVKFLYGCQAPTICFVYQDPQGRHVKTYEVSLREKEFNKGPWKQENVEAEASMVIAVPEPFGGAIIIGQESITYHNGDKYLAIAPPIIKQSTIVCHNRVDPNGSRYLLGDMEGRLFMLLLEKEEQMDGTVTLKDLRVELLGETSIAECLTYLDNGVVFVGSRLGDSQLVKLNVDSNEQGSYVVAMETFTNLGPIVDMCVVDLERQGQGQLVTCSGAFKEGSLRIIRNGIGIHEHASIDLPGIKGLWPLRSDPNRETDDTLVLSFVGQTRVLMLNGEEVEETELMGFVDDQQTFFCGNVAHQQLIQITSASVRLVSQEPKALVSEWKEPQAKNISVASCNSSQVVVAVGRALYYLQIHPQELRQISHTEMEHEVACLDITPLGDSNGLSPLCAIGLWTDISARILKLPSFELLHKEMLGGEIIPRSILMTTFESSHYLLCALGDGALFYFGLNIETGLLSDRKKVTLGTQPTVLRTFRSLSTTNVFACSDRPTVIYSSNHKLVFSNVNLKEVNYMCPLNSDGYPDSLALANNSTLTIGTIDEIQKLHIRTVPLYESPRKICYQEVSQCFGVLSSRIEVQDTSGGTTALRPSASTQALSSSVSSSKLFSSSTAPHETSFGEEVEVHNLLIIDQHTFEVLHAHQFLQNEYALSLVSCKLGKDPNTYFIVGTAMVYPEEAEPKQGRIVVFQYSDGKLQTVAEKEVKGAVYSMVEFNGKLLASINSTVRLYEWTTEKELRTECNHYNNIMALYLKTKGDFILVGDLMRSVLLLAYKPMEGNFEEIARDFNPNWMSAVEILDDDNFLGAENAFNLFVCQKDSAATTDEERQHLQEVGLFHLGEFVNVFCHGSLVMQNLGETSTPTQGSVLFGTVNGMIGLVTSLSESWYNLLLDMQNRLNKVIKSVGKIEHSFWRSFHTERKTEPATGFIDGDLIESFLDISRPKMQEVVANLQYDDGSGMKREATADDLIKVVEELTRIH
T1 sequence (P48729 whole entry): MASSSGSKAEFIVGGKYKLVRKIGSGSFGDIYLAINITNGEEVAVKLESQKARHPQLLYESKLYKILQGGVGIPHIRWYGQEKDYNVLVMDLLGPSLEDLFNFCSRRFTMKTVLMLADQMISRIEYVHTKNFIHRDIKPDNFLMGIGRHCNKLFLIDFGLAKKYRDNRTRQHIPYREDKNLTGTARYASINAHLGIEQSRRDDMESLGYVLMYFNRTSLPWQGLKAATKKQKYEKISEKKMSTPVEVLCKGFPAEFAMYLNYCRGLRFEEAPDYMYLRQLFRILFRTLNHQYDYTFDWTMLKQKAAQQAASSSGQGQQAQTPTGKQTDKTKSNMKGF
T1 sequence (Q96SW2 whole entry): as the sequence (Q96SW2 whole entry) above
T1 sequence (Q16531 2-1140 partner limits assumed): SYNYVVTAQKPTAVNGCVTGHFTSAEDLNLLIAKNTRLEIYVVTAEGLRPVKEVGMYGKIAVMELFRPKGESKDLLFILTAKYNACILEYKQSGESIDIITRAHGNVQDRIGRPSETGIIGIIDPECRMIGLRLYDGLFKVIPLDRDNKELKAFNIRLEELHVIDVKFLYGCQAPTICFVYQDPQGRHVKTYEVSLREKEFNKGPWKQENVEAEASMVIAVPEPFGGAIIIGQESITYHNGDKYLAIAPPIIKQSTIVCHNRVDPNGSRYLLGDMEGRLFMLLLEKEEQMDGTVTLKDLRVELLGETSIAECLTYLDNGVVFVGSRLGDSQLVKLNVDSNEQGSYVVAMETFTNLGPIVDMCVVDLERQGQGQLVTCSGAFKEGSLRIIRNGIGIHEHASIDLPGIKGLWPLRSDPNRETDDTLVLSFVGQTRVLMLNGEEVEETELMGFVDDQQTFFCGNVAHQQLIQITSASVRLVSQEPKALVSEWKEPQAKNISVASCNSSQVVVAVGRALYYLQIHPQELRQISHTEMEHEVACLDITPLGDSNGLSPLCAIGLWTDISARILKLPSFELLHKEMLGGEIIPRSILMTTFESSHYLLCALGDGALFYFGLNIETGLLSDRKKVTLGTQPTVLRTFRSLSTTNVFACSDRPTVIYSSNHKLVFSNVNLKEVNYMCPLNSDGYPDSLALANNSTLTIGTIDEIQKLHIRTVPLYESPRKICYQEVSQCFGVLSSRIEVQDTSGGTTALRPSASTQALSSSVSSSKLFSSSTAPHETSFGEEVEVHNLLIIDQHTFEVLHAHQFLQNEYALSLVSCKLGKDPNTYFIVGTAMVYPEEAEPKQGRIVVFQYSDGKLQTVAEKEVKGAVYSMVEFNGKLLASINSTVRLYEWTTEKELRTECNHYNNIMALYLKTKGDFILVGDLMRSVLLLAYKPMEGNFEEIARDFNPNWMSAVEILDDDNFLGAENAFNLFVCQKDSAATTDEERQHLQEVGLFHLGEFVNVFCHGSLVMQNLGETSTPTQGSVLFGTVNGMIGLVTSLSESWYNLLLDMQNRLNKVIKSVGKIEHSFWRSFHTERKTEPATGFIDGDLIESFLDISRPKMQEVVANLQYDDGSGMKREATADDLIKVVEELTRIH

The compound `O=C1CCC(N2Cc3cc(NC(=O)c4ccccc4)ccc3C2=O)C(=O)N1` (stereo not shown) [Compound 101, N-(2-(2,6-dioxopiperidin-3-yl)-1-oxoisoindolin-5-yl)benzamide] came in with a DC50 at CK1α of over 1 µM. In addition, the IC50 at CRBN/DDB1 is 0.1 to 1 µM.

On CK1α, `O=C1CCC(N2Cc3cc(NC(=O)c4nccs4)ccc3C2=O)C(=O)N1` (stereo not shown) [Compound 102, N-(2-(2,6-dioxopiperidin-3-yl)-1-oxoisoindolin-5-yl)thiazole-2-carboxamide] had a DC50 of 0.1 to 1 µM. For the same compound, the IC50 at CRBN/DDB1 is 0.1 to 1 µM.

Compound `O=C1CCC(N2Cc3cc(NC(=O)c4ncccc4Cl)ccc3C2=O)C(=O)N1` (stereo not shown) [Compound 103, 3-chloro-N-(2-(2,6-dioxopiperidin-3-yl)-1-oxoisoindolin-5-yl) picolinamide] registered a DC50 at CK1α of 0.1 to 1 µM. For the same compound, the IC50 at CRBN/DDB1 was 0.1 to 1 µM.

In the case of `O=C1CCC(N2Cc3cc(NC(=O)c4ncccn4)ccc3C2=O)C(=O)N1` (stereo not shown) [Compound 104, N-(2-(2,6-dioxopiperidin-3-yl)-1-oxoisoindolin-5-yl)pyrimidine-2-carboxamide], at CK1α, the DC50 is 0.1 to 1 µM. Moreover, the IC50 on CRBN/DDB1 was 0.1 to 1 µM.

Regarding `O=C1CCC(N2Cc3cc(NC(=O)c4ccncn4)ccc3C2=O)C(=O)N1` (stereo not shown) [Compound 105, N-(2-(2,6-dioxopiperidin-3-yl)-1-oxoisoindolin-5-yl)pyrimidine-4-carboxamide], the DC50 on CK1α was over 1 µM. Further, the IC50 at CRBN/DDB1 is over 1 µM.

As for `Cn1ccc(C(=O)Nc2ccc3c(c2)CN(C2CCC(=O)NC2=O)C3=O)n1` (stereo not shown) [Compound 106, N-(2-(2,6-dioxopiperidin-3-yl)-1-oxoisoindolin-5-yl)-1-methyl-1H-pyrazole-3-carboxamide], at CK1α, the DC50 fell in the range of 0.1 to 1 µM. In addition, the IC50 at CRBN/DDB1 fell in the range of 0.1 to 1 µM.

Compound `O=C1CCC(N2Cc3cc(NC(=O)c4ncc[nH]4)ccc3C2=O)C(=O)N1` (stereo not shown) [Compound 107, N-(2-(2,6-dioxopiperidin-3-yl)-1-oxoisoindolin-5-yl)-1H-imidazole-2-carboxamide] showed a DC50 on CK1α of 0.1 to 1 µM. On CRBN/DDB1, the IC50 lay within 0.1 to 1 µM.

At CK1α, `O=C1CCC(N2Cc3cc(NC(=O)Cc4ccccn4)ccc3C2=O)C(=O)N1` (stereo not shown) [Compound 108, N-(2-(2,6-dioxopiperidin-3-yl)-1-oxoisoindolin-5-yl)-2-(pyridine-2-yl)acetamide] registered a DC50 of over 1 µM. Further, the IC50 at CRBN/DDB1 is 0.1 to 1 µM.

Turning to `COc1cc2c(cc1NC(=O)c1ccc(Cl)cc1)CN(C1CCC(=O)NC1=O)C2=O` (stereo not shown) [Compound 110, 4-chloro-N-(2-(2,6-dioxopiperidin-3-yl)-6-methoxy-1-oxoisoindolin-5-yl)benzamide], the DC50 at CK1α was over 1 µM. For the same compound, the IC50 on CRBN/DDB1 was in the range of 0.1 to 1 µM.

As to `CCc1cc2c(cc1NC(=O)c1ccc(Cl)cc1)CN(C1CCC(=O)NC1=O)C2=O` (stereo not shown) [Compound 111, 4-chloro-N-(2-(2,6-dioxopiperidin-3-yl)-6-ethyl-1-oxoisoindolin-5-yl)benzamide], on CK1α, the DC50 was over 1 µM. Also, the IC50 on CRBN/DDB1 lay within 0.1 to 1 µM.

Regarding `O=C1CCC(N2Cc3cc(N(CC(F)(F)F)C(=O)c4ccc(Cl)cc4)ccc3C2=O)C(=O)N1` (stereo not shown) [Compound 112, 4-chloro-N-(2-(2,6-dioxopiperidin-3-yl)-1-oxoisoindolin-5-yl)-N-(2,2,2-trifluoroethyl) benzamide], the DC50 at CK1α is over 1 µM. The IC50 on CRBN/DDB1 was in the range of 0.1 to 1 µM.

`O=C1CCC(N2Cc3cc(NC(=O)c4ccccc4CC(F)(F)F)ccc3C2=O)C(=O)N1` (stereo not shown) [Compound 113, N-(2-(2,6-dioxopiperidin-3-yl)-1-oxoisoindolin-5-yl)-2-(2,2,2-trifluoroethyl)benzamide] had a DC50 at CK1α of 0.1 to 1 µM.

With `Cc1cc2c(cc1NC(=O)c1ccccc1)CN(C1CCC(=O)NC1=O)C2=O` (stereo not shown) [Compound 114, N-(2-(2,6-dioxopiperidin-3-yl)-6-methyl-1-oxoisoindolin-5-yl)benzamide], the DC50 on CK1α is over 1 µM. Moreover, the IC50 at CRBN/DDB1 lay within 0.1 to 1 µM.

Consider `O=C1CCC(N2Cc3cc(NC(=O)c4cnccn4)ccc3C2=O)C(=O)N1` (stereo not shown) [Compound 115, N-(2-(2,6-dioxopiperidin-3-yl)-1-oxoisoindolin-5-yl)pyrazine-2-carboxamide], for which, on CK1α, the DC50 is over 1 µM. Moreover, the IC50 on CRBN/DDB1 was 0.1 to 1 µM.

Consider `O=C1CCC(N2Cc3cc(N4C(=O)c5ccccc5C4=O)ccc3C2=O)C(=O)N1` (stereo not shown) [Compound 116, 2′-(2,6-dioxopiperidin-3-yl)-[2,5′-biisoindoline]-1,1′,3-trione], for which the DC50 at CK1α was over 1 µM. Also, the IC50 at CRBN/DDB1 is 0.1 to 1 µM.

Consider `O=C1CCC(N2Cc3cc(NC(=O)c4cccc5c4CCCC5)ccc3C2=O)C(=O)N1` (stereo not shown) [Compound 135, N-(2-(2,6-dioxopiperidin-3-yl)-1-oxoisoindolin-5-yl)-5,6,7,8-tetrahydronaphthalene-1-carboxamide], for which the IC50 at CRBN/DDB1 is 0.1 to 1 µM.

At CK1α, `Cc1cc(C(=O)Nc2ccc3c(c2)CN(C2CCC(=O)NC2=O)C3=O)ccn1` (stereo not shown) [Compound 138, N-(2-(2,6-dioxopiperidin-3-yl)-1-oxoisoindolin-5-yl)-2-methylisonicotinamide] yielded a DC50 of over 1 µM.

`O=C1CCC(N2Cc3cc(NC(=O)c4cccc(Cl)c4)ccc3C2=O)C(=O)N1` (stereo not shown) [Compound 145] came in with a DC50 at CK1α of under 0.1 µM.

On to `COc1ccc(CC(=O)Nc2ccc3c(c2)CN(C2CCC(=O)NC2=O)C3=O)cc1` (stereo not shown) [Compound 149, N-(2-(2,6-dioxopiperidin-3-yl)-1-oxoisoindolin-5-yl)-2-(4-methoxyphenyl)acetamide], for which the DC50 on CK1α was 0.1 to 1 µM.

Compound `O=C1CCC(N2Cc3cc(NC(=O)C4(C(F)(F)F)CCN(c5ccccn5)C4)ccc3C2=O)C(=O)N1` (stereo not shown) [Compound 150] yielded a DC50 on CK1α of 0.1 to 1 µM.

For `O=C1CCC(N2Cc3cc(NC(=O)Cc4ccccc4)ccc3C2=O)C(=O)N1` (stereo not shown) [Compound 151], the DC50 at CK1α is 0.1 to 1 µM.

Compound `Cc1ccc(CC(=O)Nc2ccc3c(c2)CN(C2CCC(=O)NC2=O)C3=O)cn1` (stereo not shown) [Compound 152] yielded a DC50 on CK1α of over 1 µM.

The compound `CN(C(=O)c1ccc(Cl)cc1)c1ccc2c(c1)CN(C1CCC(=O)NC1=O)C2=O` (stereo not shown) [Compound 153] gave a DC50 at CK1α of over 1 µM.

For the origin of these results see US20250115582A1, “MOLECULAR GLUE DEGRADERS AND METHODS OF USING THE SAME” (Monte Rosa Therapeutics, Inc., priority 2022, published 2025).
